The compounds below were run on Jurkat FADD (−/−) Cells (assay: TNF-α induced necroptosis of Jurkat FADD-deficient cells (CellTiter-Glo cell survival)). Settings: Homo sapiens; TNF-α induced necroptosis, Jurkat FADD-deficient cells, 13 hours, CellTiter-Glo; read-out: IC50.
Format: cell-based, human
Summary of the method: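 Cells in RPMI 1640 with 10% FBS were pretreated for 1 h at 37 °C with compound (12-point threefold series from 25 μM, or 0.5 μM, in triplicate). They were then stimulated with TNFα added as a 5 ng/mL solution for 13 h. Survival was read by luminescence.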
COCc1cccc(-c2cn3c4c(cccc24)N(C)C(=O)C(NC(=O)c2nnc(Cc4ccccc4)[nH]2)C3)c1 (racemic) [T-80, (±)-5-benzyl-N-(7-(3-(methoxymethyl)phenyl)-1-methyl-2-oxo-1,2,3,4-tetrahydro-[1,4]diazepino [3,2,1-hi]indol-3-yl)-4H-1,2,4-triazole-3-carboxamide] showed an IC50 of 10 to 100 nM. With CN1C(=O)C(NC(=O)c2ncc(Cc3ccccc3)o2)Cn2cc(-c3ccnn3C)c3cccc1c32 (racemic) [T-83, (±)-5-benzyl-N-(1-methyl-7-(1-methyl-1H-pyrazol-5-yl)-2-oxo-1,2,3,4-tetrahydro-[1,4]diazepino[3,2,1-hi]indol-3-yl)-oxazole-2-carboxamide] the IC50 was < 10 nM. CN1C(=O)C(NC(=O)c2nnc(Cc3ccccc3)[nH]2)Cn2cc(-c3ccccc3C(F)(F)F)c3cccc1c32 (racemic) [T-84, (±)-5-benzyl-N-(1-methyl-2-oxo-7-(2-(trifluoromethyl)phenyl)-1,2,3,4-tetrahydro-[1,4]diazepino [3,2,1-hi]indol-3-yl)-4H-1,2,4-triazole-3-carboxamide] was tested, and the IC50 was 10 to 100 nM. COc1cccc(OC)c1-c1cn2c3c(cccc13)N(C)C(=O)C(NC(=O)c1nnc(Cc3ccccc3)[nH]1)C2 (racemic) [T-85, (±)-5-benzyl-N-(7-(2,6-dimethoxyphenyl)-1-methyl-2-oxo-1,2,3,4-tetrahydro-[1,4]diazepino [3,2,1-hi]indol-3-yl)-4H-1,2,4-triazole-3-carboxamide] was tested, and the IC50 was 100 to 1000 nM. With COc1ccccc1-c1cn2c3c(cccc13)N(C)C(=O)C(NC(=O)c1nnc(Cc3ccccc3)[nH]1)C2 (racemic) [T-87, (±)-5-benzyl-N-(7-(2-methoxyphenyl)-1-methyl-2-oxo-1,2,3,4-tetrahydro-[1,4]diazepine [3,2,1-hi]indol-3-yl)-4H-1,2,4-triazole-3-carboxamide] the IC50 was 10 to 100 nM. For CN1C(=O)C(NC(=O)c2nnc(Cc3ccccc3)[nH]2)Cn2cc(-c3cnoc3)c3cccc1c32 (racemic) [T-88, (±)-5-benzyl-N-(7-(isoxazol-4-yl)-1-methyl-2-oxo-1,2,3,4-tetrahydro-[1,4]diazepine [3,2,1-hi]indol-3-yl)-4H-1,2,4-triazole-3-carboxamide], the IC50 was 10 to 100 nM. In the case of CN1C(=O)C(N2CCc3c(nn(Cc4ccccc4)c3Cl)C2=O)Cn2cc(-c3ccnn3C)c3cccc1c32 (racemic) [T-89, (±)-3-(2-benzyl-3-chloro-7-oxo-2,4,5,7-tetrahydro-6H-pyrazole [3,4-c]pyridin-6-yl)-1-methyl-7-(1-methyl-1H-pyrazol-5-yl)-3,4-dihydro-[1,4]diazepine[3,2,1-hi]indole-2(1H)-one], the IC50 is reported as 10 to 100 nM. In the case of CC(C)n1nccc1-c1cn2c3c(cccc13)N(C)C(=O)C(NC(=O)c1nnc(Cc3ccccc3)[nH]1)C2 (racemic) [T-90, (±)-5-benzyl-N-(7-(1-isopropyl-1H-pyrazol-5-yl)-1-methyl-2-oxo-1,2,3,4-tetrahydro-1,4-diazepine [3,2,1-hi]indol-3-yl)-4H-1,2,4-triazole-3-carboxamide], the IC50 is reported as < 10 nM. Cc1ccsc1-c1cn2c3c(cccc13)N(C)C(=O)C(NC(=O)c1nnc(Cc3ccccc3)[nH]1)C2 (racemic) [T-91, (±)-5-benzyl-N-(1-methyl-7-(3-methylthiophen-2-yl)-2-oxo-1,2,3,4-tetrahydro-[1,4]diazepine [3,2,1-hi]indol-3-yl)-4H-1,2,4-triazole-3-carboxamide] gave an IC50 of 10 to 100 nM. With CN1C(=O)C(NC(=O)c2nnc(Cc3ccccc3)[nH]2)Cc2cn(-c3ncccc3CC(F)(F)F)c3cccc1c23 (racemic) [T-97, (±)-5-benzyl-N-(1-methyl-2-oxo-6-(3-(2,2,2-trifluoroethyl)pyridin-2-yl)-2,3,4,6-tetrahydro-1H-azacyclo [4,3,2-cd]indol-3-yl)-4H-1,2,4-triazole-3-carboxamide] the IC50 was < 10 nM. In the case of CN1C(=O)C(NC(=O)c2nnc(Cc3ccccc3)[nH]2)Cc2cn(-c3nccc4ccccc34)c3cccc1c23 (racemic) [T-99, (±)-5-benzyl-N-(6-(isoquinolin-1-yl)-1-methyl-2-oxo-2,3,4,6-tetrahydro-1H-aza [4,3,2-cd]indol-3-yl)-4H-1,2,4-triazole-3-carboxamide], the IC50 is reported as < 10 nM. With COC(=O)c1cc(-n2cc3c4c(cccc42)N(C)C(=O)C(NC(=O)c2nnc(Cc4ccccc4)[nH]2)C3)cn1C (racemic) [T-100, (±)-methyl4-(3-(5-benzyl-4H-1,2,4-triazole-3-carboxamide)-1-methyl-2-oxo-1,2,3,4-tetrahydro-6H-azacyclo [4,3,2-cd]indol-6-yl)-1-methyl-1H-pyrrole-2-carboxylate] the IC50 was 10 to 100 nM. CN1C(=O)C(NC(=O)c2nnc(Cc3ccccc3)[nH]2)Cc2cn(-c3cccnc3)c3cccc1c23 (racemic) [T-101, (±)-5-benzyl-N-(1-methyl-2-oxo-6-(pyridin-3-yl)-2,3,4,6-tetrahydro-1H-azacyclo [4,3,2-cd]indol-3-yl)-4H-1,2,4-triazole-3-carboxamide] showed an IC50 of 10 to 100 nM. CN1C(=O)C(NC(=O)c2nnc(Cc3ccccc3)[nH]2)Cc2cn(-c3ccncc3)c3cccc1c23 (racemic) [T-102, (±)-5-benzyl-N-(1-methyl-2-oxo-6-(pyridin-4-yl)-2,3,4,6-tetrahydro-1H-azacyclo [4,3,2-cd]indol-3-yl)-4H-1,2,4-triazole-3-carboxamide] gave an IC50 of 10 to 100 nM. Compound CCOC(=O)c1cccnc1-n1cc2c3c(cccc31)N(C)C(=O)C(NC(=O)c1nnc(Cc3ccccc3)[nH]1)C2 (racemic) [T-103] has an IC50 of 10 to 100 nM. CC(C)OC(=O)c1cccnc1-n1cc2c3c(cccc31)N(C)C(=O)C(NC(=O)c1nnc(Cc3ccccc3)[nH]1)C2 (racemic) [T-104, (±)-2-(3-(5-benzyl-4H-1,2,4-triazole-3-carboxamide)-1-methyl-2-oxo-1,2,3,4-tetrahydro-6H-azacyclo [4,3,2-cd]indol-6-yl)isopropyl Nicotinate] gave an IC50 of 10 to 100 nM. For CN1C(=O)C(NC(=O)c2nnc(Cc3ccccc3)[nH]2)Cc2cn(-c3ncccc3OC(F)(F)F)c3cccc1c23 (racemic) [T-105, (±)-5-benzyl-N-(1-methyl-2-oxo-6-(3-(trifluoromethoxy)pyridin-2-yl)-2,3,4,6-tetrahydro-1H-azacyclo [4,3,2-cd]indol-3-yl)-4H-1,2,4-triazole-3-carboxamide], the IC50 was < 10 nM. Compound CN1C(=O)C(NC(=O)c2nnc(Cc3ccccc3)[nH]2)Cc2cn(-c3cccnn3)c3cccc1c23 (racemic) [T-106, (±)-5-benzyl-N-(1-methyl-2-oxo-6-(pyridazin-3-yl)-2,3,4,6-tetrahydro-1H-aza [4,3,2-cd]indol-3-yl)-4H-1,2,4-triazole-3-carboxamide] has an IC50 of 100 to 1000 nM. For CN1C(=O)C(NC(=O)c2nnc(Cc3ccccc3)[nH]2)Cc2cn(-c3ncccc3OC(F)F)c3cccc1c23 (racemic) [T-107, (±)-5-benzyl-N-(6-(3-(difluoromethoxy)pyridin-2-yl)-1-methyl-2-oxy-2,3,4,6-tetrahydro-1H-azacyclo [4,3,2-cd]indol-3-yl)-4H-1,2,4-triazole-3-carboxamide], the IC50 was < 10 nM. In the case of CCS(=O)(=O)c1cccnc1-n1cc2c3c(cccc31)N(C)C(=O)C(NC(=O)c1nnc(Cc3ccccc3)[nH]1)C2 (racemic) [T-108, (±)-5-benzyl-N-(6-(3-(ethylsulfonyl)pyridin-2-yl)-1-methyl-2-oxo-2,3,4,6-tetrahydro-1H-aza [4,3,2-cd]indol-3-yl)-4H-1,2,4-triazole-3-carboxamide], the IC50 is reported as 10 to 100 nM. CN1C(=O)C(NC(=O)c2nnc(Cc3ccccc3)[nH]2)Cc2cn(-c3ncccc3S(=O)(=O)C3CC3)c3cccc1c23 (racemic) [T-109, (±)-5-benzyl-N-(6-(3-(cyclopropylsulfonyl)pyridin-2-yl)-1-methyl-2-oxo-2,3,4,6-tetrahydro-1H-azacyclo [4,3,2-cd]indol-3-yl)-4H-1,2,4-triazole-3-carboxamide] was tested, and the IC50 was < 10 nM. In the case of CN1C(=O)C(NC(=O)c2nnc(Cc3ccccc3)[nH]2)Cc2cn(-c3ncccc3P(C)(C)=O)c3cccc1c23 (racemic) [T-110, (±)-5-benzyl-N-(6-(3-(dimethylphosphoryl)pyridin-2-yl)-1-methyl-2-oxo-2,3,4,6-tetrahydro-1H-aza [4,3,2-cd]indol-3-yl)-4H-1,2,4-triazole-3-carboxamide], the IC50 is reported as > 1000 nM. CN1C(=O)C(NC(=O)c2nnc(Cc3ccccc3)[nH]2)Cc2cn(-c3ncccc3SC(F)(F)F)c3cccc1c23 (racemic) [T-111, (±)-5-benzyl-N-(1-methyl-2-oxo-6-(3-((trifluoromethyl)thio)pyridin-2-yl)-2,3,4,6-tetrahydro-1H-aza [4,3,2-cd]indol-3-yl)-4H-1,2,4-triazole-3-carboxamide] was tested, and the IC50 was < 10 nM. For Cc1nn(C)c(C)c1-c1cn2c3c(cccc13)N(C)C(=O)C(NC(=O)c1nnc(Cc3ccccc3)[nH]1)C2 (racemic) [T-114, (±)-5-benzyl-N-(1-methyl-2-oxo-7-(1,3,5-trimethyl-1H-pyrazol-4-yl)-1,2,3,4-tetrahydro-[1,4]diazepine [3,2,1-hi]indol-3-yl)-4H-1,2,4-triazole-3-carboxamide], the IC50 was < 10 nM. Work on CN1C(=O)C(NC(=O)c2nnc(Cc3ccccc3)[nH]2)Cc2c[nH]c3ccnc1c23 (racemic) [T-129, (±)-5-benzyl-N-(6-methyl-7-oxo-6,7,8,9-tetrahydro-2H-2,5,6-triazabenzene[cd]azulene-8-yl)-4H-1,2,4-triazol-3-carboxamide] yielded an IC50 of 100 to 1000 nM. In the case of CN1C(=O)C(NC(=O)c2nnc(Cc3ccccc3)[nH]2)Cc2c[nH]c3cncc1c23 (racemic) [T-130, (±)-5-benzyl-N-(6-methyl-7-oxo-6,7,8,9-tetrahydro-2H-2,3,6-triazabenzene[cd]azulene-8-yl)-4H-1,2,4-triazol-3-carboxamide], the IC50 is reported as > 1000 nM.

Same assay, conditions: TNF-α induced necroptosis, Jurkat FADD-deficient cells, 13 hours, CellTiter-Glo; read-out: IC50
For Cc1nn(C)c(C)c1-c1cn2c3c(cccc13)N(C)C(=O)C(NC(=O)c1nnc(Cc3ccccc3)[nH]1)C2 (racemic) [T-119, (±)-5-benzyl-N-(1-methyl-2-oxo-7-(1,3,5-trimethyl-1H-pyrazol-4-yl)-1,2,3,4-tetrahydro-[1,4]diazepine [3,2,1-hi]indol-3-yl)-4H-1,2,4-triazole-3-carboxamide], the IC50 was < 10 nM.
